Data on 50 molecules can be found in patent US20250281467A1, “MODULATORS OF INTRACELLULAR CHLORIDE CONCENTRATION FOR USE IN THE TREATMENT OF COGNITIVE DECLINE” (FONDAZIONE ISTITUTO ITALIANO DI TECNOLOGIA, priority 2022, published 2025).

The first data set relates to mice C57BL/6J aged >24 months. Briefly: open field test after diazepam in elderly and young mice. The format is in vivo. Particulars: elderly mice (>24 months), diazepam 2 mg/kg, compared to elderly mice treated with vehicle or young mice treated with diazepam. The text has this:
FIG. 2 illustrates the evaluation of the effect of benzodiazepines in elderly mice which is indicative of a potentiated GABAergic transmission. a) Quantification of the immobility time during the open field test of mice treated with vehicle (young, n=7, elderly, n=6) or diazepam (young, n=7, elderly, n=7) (two-way ANOVA, Tukey post hoc test, *** P<0.001). b) Quantification of the distance travelled during the open field test by mice treated with vehicle (young, n=7, elderly, n=6) or diazepam (young, n=7, elderly, n=7) (two-way ANOVA, Tukey post hoc test, ** P<0.01, *** P<0.001).
In fact, benzodiazepines are positive allosteric modulators of GABAAR. Benzodiazepines are commonly used as anxiolytic drugs, but can produce anxiogenic or highly sedative effects depending on the polarity of GABAergic transmission. To test the reaction of elderly mice to benzodiazepines, mice C57BL/6J aged >24 months and 2-month old controls C57BL/6J were treated with diazepam (2 mg/kg in saline solution) or vehicle (2% DMSO in saline solution). The open field test was then carried out to evaluate locomotor activity and the level of anxiety of the mice tested. […] This is indicative of an over-sedation reaction of the diazepam in the elderly mice, which may reflect the presence of hyper-inhibitory GABAergic transmission. This evidence is in accordance with the up-regulation of KCC2 (FIG. 1b).
For the molecule `CN1C(=O)CN=C(c2ccccc2)c2cc(Cl)ccc21` [diazepam], the “distance travelled during the open field test” value is “significantly lower” and the “immobility time during the open field test” value was “significantly higher”.

A further data set concerns the target T1, KCC2 (Homo sapiens, UniProt Q9H2X9).
T1 sequence (Q9H2X9 1-1139): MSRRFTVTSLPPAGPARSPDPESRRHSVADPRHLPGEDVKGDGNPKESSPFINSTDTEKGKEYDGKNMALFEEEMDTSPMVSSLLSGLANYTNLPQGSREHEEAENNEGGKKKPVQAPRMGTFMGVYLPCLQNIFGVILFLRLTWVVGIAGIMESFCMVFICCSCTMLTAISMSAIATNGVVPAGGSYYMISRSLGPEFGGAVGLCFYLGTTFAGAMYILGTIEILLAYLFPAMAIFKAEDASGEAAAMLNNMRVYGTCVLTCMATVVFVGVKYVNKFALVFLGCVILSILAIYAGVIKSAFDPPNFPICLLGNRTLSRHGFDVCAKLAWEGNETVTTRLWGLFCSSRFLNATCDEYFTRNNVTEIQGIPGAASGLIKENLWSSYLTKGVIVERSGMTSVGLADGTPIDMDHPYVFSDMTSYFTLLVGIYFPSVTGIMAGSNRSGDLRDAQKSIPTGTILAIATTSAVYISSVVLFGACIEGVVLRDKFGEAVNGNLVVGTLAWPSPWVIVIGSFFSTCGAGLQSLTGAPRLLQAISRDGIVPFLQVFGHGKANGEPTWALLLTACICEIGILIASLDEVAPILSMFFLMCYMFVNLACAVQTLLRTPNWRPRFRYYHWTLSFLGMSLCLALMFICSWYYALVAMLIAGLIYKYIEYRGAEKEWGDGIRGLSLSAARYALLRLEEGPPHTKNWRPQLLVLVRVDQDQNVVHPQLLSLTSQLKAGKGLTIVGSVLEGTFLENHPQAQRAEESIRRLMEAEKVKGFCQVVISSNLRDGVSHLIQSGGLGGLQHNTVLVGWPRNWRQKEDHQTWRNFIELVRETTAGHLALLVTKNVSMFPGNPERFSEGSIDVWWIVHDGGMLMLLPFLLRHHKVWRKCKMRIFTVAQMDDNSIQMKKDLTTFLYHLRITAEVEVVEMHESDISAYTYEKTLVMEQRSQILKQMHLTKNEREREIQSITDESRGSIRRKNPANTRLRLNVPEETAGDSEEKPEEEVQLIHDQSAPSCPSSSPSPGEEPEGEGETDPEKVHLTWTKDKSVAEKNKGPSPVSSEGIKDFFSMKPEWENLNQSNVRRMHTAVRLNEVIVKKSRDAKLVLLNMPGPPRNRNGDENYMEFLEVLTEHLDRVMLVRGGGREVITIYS
Briefly: inhibitory activity measured in vitro on KCC2. Type of data set: biochemical. Particulars: IC50, in vitro on KCC2.
As for `CC(=O)N1CCCC1(CC1CCCCC1)C(=O)OCc1ccccc1` (stereo not shown) [Compound 24], the IC50 (in general, the midpoint of a concentration-inhibition curve) amounted to 4000 nM.

The data set is the same for the next values; noted with them: in vitro on KCC2; read-out: IC50.
Consider `CC(=O)N1CCCC1(Cc1ccccc1)C(=O)OCc1ccccc1` (stereo not shown) [Compound 21], for which the IC50 is 790 nM.
Take `CC(=O)N1CCCC1(CCc1ccccc1)C(=O)OCc1ccccc1` (stereo not shown) [Compound 22]: the IC50 was 8000 nM.
Take `CCC1(C(=O)OCc2ccccc2)CCCN1C(C)=O` (stereo not shown) [Compound 23]: the IC50 turned out to be 2300 nM.
Still for that read-out and setting: next, `CC(=O)N1CCCC1(Cc1ccncc1)C(=O)OCc1ccccc1` (stereo not shown) [Compound 25]: 2000 nM; `CC(=O)N1CCCC1(Cc1ccsc1)C(=O)OCc1ccccc1` (stereo not shown) [Compound 26]: 790 nM; `CC(=O)N1CCCC1(Cc1ccc(C)cc1)C(=O)OCc1ccccc1` (stereo not shown) [Compound 27]: 790 nM.
For `COc1ccc(CC2(C(=O)OCc3ccccc3)CCCN2C(C)=O)cc1` (stereo not shown) [Compound 28], the IC50 was found to be 400 nM.
Same read-out and setting: next, `CC(=O)N1CCCC1(Cc1ccc(C(F)(F)F)cc1)C(=O)OCc1ccccc1` (stereo not shown) [Compound 29]: 630 nM; `CC(=O)N1CCCC1(Cc1ccc(F)cc1)C(=O)OCc1ccccc1` (stereo not shown) [Compound 30]: 200 nM.
On the same count and under the same terms, next, `CC(=O)N1CCCC1(Cc1ccc(Cl)cc1)C(=O)OCc1ccccc1` (stereo not shown) [Compound 31]: 320 nM; `CC(=O)N1CCCC1(Cc1ccc(S(C)(=O)=O)cc1)C(=O)OCc1ccccc1` (stereo not shown) [Compound 32]: 1000 nM.
Still for that read-out and setting: next, `CC(=O)N1CCCC1(Cc1ccc(C#N)cc1)C(=O)OCc1ccccc1` (stereo not shown) [Compound 33]: 160 nM; `CC(=O)N1CCCC1(Cc1cccc(C#N)c1)C(=O)OCc1ccccc1` (stereo not shown) [Compound 34]: 320 nM; `CC(=O)N1CCCC1(Cc1ccccc1C#N)C(=O)OCc1ccccc1` (stereo not shown) [Compound 35]: 5000 nM.
Regarding `CC(=O)N1CCCC1(Cc1cccc(S(C)(=O)=O)c1)C(=O)OCc1ccccc1` (stereo not shown) [Compound 36], the half-inhibitory concentration (IC50) is 250 nM.
Still for that read-out and setting: next, `CC(=O)N1CCCC1(Cc1cccc(C(F)(F)F)c1)C(=O)OCc1ccccc1` (stereo not shown) [Compound 37]: 80 nM; `CC(=O)N1CCCC1(Cc1ccc(F)c(C(F)(F)F)c1)C(=O)OCc1ccccc1` (stereo not shown) [Compound 38]: 60 nM.
In the case of `COc1ccc(CC2(C(=O)OCc3ccccc3)CCCN2C(C)=O)cc1C(F)(F)F` (stereo not shown) [Compound 39], the concentration for half-maximal inhibition (IC50) is 50 nM.
Still for that read-out and setting: next, `CC(=O)N1CCCC1(Cc1ccc(F)cc1C(F)(F)F)C(=O)OCc1ccccc1` (stereo not shown) [Compound 40]: 4000 nM; `CC(=O)N1CCCC1(Cc1ccccc1)C(=O)NCc1ccccc1` (stereo not shown) [Compound 41]: 100000 nM.
On to `CC(=O)N1CCCC1(Cc1ccccc1)C(=O)N(C)Cc1ccccc1` (stereo not shown) [Compound 42], for which the IC50 was 32000 nM.
Still for that read-out and setting: next, `CC(=O)N1CCCC1(Cc1ccccc1)C(=O)O` (stereo not shown) [Compound 43]: over 100000 nM.
On to `COC(=O)C1(Cc2ccccc2)CCCN1C(C)=O` (stereo not shown) [Compound 44], for which the IC50 is over 100000 nM.
Still for that read-out and setting: to `CC(=O)N1CCCC1(Cc1ccccc1)C(=O)OC(C)c1ccccc1` (stereo not shown) [Compound 45] belongs 4000 nM.
On the same count and under the same terms, next, `CC(=O)N1CCCC1(Cc1ccccc1)C(=O)OCCc1ccccc1` (stereo not shown) [Compound 46]: 10000 nM; `CC(=O)N1CCCC1(Cc1ccccc1)C(=O)OCC1CCCCC1` (stereo not shown) [Compound 47]: 63000 nM.
Still for that read-out and setting: next, `CC(=O)N1CCCC1(Cc1ccccc1)C(=O)OCc1ccncc1` (stereo not shown) [Compound 48]: over 100000 nM; `CC(=O)N1CCCC1(Cc1ccccc1)C(=O)OCc1ccccc1Cl` (stereo not shown) [Compound 49]: 6000 nM.
Turning to `CC(=O)N1CCCC1(Cc1ccccc1)C(=O)OCc1cccc(Cl)c1` (stereo not shown) [Compound 50], the IC50 is 2500 nM.
The same measure, in the same setting: to `CC(=O)N1CCCC1(Cc1ccccc1)C(=O)OCc1ccc(Cl)cc1` (stereo not shown) [Compound 51] belongs 1300 nM.
For `CC(=O)N1CCCC1(Cc1ccccc1)C(=O)OCc1ccc(C)cc1` (stereo not shown) [Compound 52], the IC50 amounted to 790 nM.
For `CC(=O)N1CCCC1(Cc1ccccc1)C(=O)OCc1ccc(C(F)(F)F)cc1` (stereo not shown) [Compound 53], the IC50 came out at 5000 nM.
As for `CC(=O)N1CCCC1(Cc1ccccc1)C(=O)OCc1ccc(S(C)(=O)=O)cc1` (stereo not shown) [Compound 54], the IC50 is over 100000 nM.
`O=C(OCc1ccccc1)C1(Cc2ccccc2)CCCN1` (stereo not shown) [Compound 55]: the IC50 is over 100000 nM.
Same read-out and setting: next, `CCN1CCCC1(Cc1ccccc1)C(=O)OCc1ccccc1` (stereo not shown) [Compound 56]: over 100000 nM.
Take `CS(=O)(=O)N1CCCC1(Cc1ccccc1)C(=O)OCc1ccccc1` (stereo not shown) [Compound 57]: the IC50 is 1600 nM.
With `COC(=O)N1CCCC1(Cc1ccccc1)C(=O)OCc1ccccc1` (stereo not shown) [Compound 58], the IC50 was determined as 400 nM.
On the same count and under the same terms, next, `CCNC(=O)N1CCCC1(Cc1ccccc1)C(=O)OCc1ccccc1` (stereo not shown) [Compound 59]: 2000 nM.
Same read-out and setting: next, `CCC(=O)N1CCCC1(Cc1ccccc1)C(=O)OCc1ccccc1` (stereo not shown) [Compound 60]: 1200 nM; `O=C(C1CC1)N1CCCC1(Cc1ccccc1)C(=O)OCc1ccccc1` (stereo not shown) [Compound 61]: 320 nM; `O=C(c1ccccc1)N1CCCC1(Cc1ccccc1)C(=O)OCc1ccccc1` (stereo not shown) [Compound 62]: 4000 nM.
On the same count and under the same terms, next, `CC(=O)N1CCCC1(Cc1ccccc1)C(=O)CCc1ccccc1` (stereo not shown) [Compound 63]: 300 nM.
With `CC(=O)N1CCCC1(Cc1ccc(F)cc1)C(=O)CCc1ccc(F)cc1` (stereo not shown) [Compound 64], the IC50 worked out at 200 nM.
On the same count and under the same terms, next, `CC(=O)N1c2ccccc2CC1(Cc1ccccc1)C(=O)OCc1ccccc1` (stereo not shown) [Compound 65]: 200 nM; `CC(=O)N1CCCC1(Cc1ccccc1)C(=O)OCc1ccccc1` (stereo not shown) [Compound 66]: 20000 nM.
Still for that read-out and setting: next, `CC(=O)N1CCCC1(Cc1ccccc1)C1=N[C@H](c2ccccc2)CO1` (stereo partly shown) [Compound 67]: 1300 nM; `CC(=O)N1CCCC1(Cc1ccccc1)c1nc(-c2ccccc2)co1` (stereo not shown) [Compound 68]: 12600 nM.
On the same count and under the same terms, next, `O=C1CCCC2CCC(Cc3ccccc3)(C(=O)OCc3ccccc3)N12` (stereo not shown) [Compound 69]: 1000 nM.

For the next data set, the system named is elderly mice. Briefly: novel object recognition (NOR) test in elderly mice. The format is in vivo. Particulars: 1 mg/kg i.p., versus vehicle. The text has this:
FIG. 3 illustrates the evaluation of the efficacy of compound 32 (KCC2 inhibitor) to restore impaired memory in elderly mice. a) Quantification of the discrimination index of the NOR test in young (n=13) and elderly (n=10) mice (two tailed t-test, ** P<0.01). b) Quantification of the discrimination index of the NOR test in mice treated with vehicle (young, n=12, elderly, n=9) or compound 32 (young, n=10, elderly, n=6) (two-way ANOVA, Tukey post hoc test, ** P<0.01, ** P<0.001).
To evaluate memory capacity in the elderly mice, the novel object recognition (NOR) test was conducted. This test evaluates the long-term object recognition memory by measuring the capacity of the mice to recognize a novel object compared to familiar objects. […] Subsequently, to test the ability of the non-selective KCC2 inhibitor, Compound 32, to restore poor memory, the NOR test was conducted in the presence of the drug. The mice were treated with compound 32 (1 mg/kg i.p.) or with the vehicle.
With `CC(=O)N1CCCC1(Cc1ccc(S(C)(=O)=O)cc1)C(=O)OCc1ccccc1` (stereo not shown) [Compound 32], the “object recognition memory (discrimination index of the NOR test)” value was “significantly restored”.
